Experimental data taken from the NIST ThermoML archive (doi:10.1016/j.jct.2015.08.014).

Assay: xn = mol fraction of the nth substance listed
Conditions: 273.15 K, 100 kPa, Liquid; for electrical conductivity: Alternating current cell with electrodes; for viscosity: Capillary tube (Ostwald / Ubbelohde) method

CCCC[N+]1(C)CCCC1.N#CN=C=[N-] [1-butyl-1-methylpyrrolidinium dicyanamide] + O=C1CCCO1
Conditions	electrical conductivity [S/m]	viscosity [mPa·s]
x1 = 0.0463	0.977	–
x1 = 0.0987	1.43	4.69
x1 = 0.1449	1.56	–
x1 = 0.1859	1.634	7.2
x1 = 0.2493	1.517	–
x1 = 0.3029	1.42	12.03
x1 = 0.3845	1.25	–
x1 = 0.4985	1.03	24.9
x1 = 0.6954	0.742	45.65
x1 = 0.9013	0.562	76.07
x1 = 1	0.523	93.95

Conditions	electrical conductivity [S/m]
Frequency=0.0005 MHz, x1 = 0.0463	0.97
Frequency=0.0005 MHz, x1 = 0.0987	1.41
Frequency=0.0005 MHz, x1 = 0.1449	1.56
Frequency=0.0005 MHz, x1 = 0.1859	1.619
Frequency=0.0005 MHz, x1 = 0.2493	1.513
Frequency=0.0005 MHz, x1 = 0.3029	1.42
Frequency=0.0005 MHz, x1 = 0.3845	1.25
Frequency=0.0005 MHz, x1 = 0.4985	1.03
Frequency=0.0005 MHz, x1 = 0.6954	0.741
Frequency=0.0005 MHz, x1 = 0.9013	0.561
Frequency=0.0005 MHz, x1 = 1	0.522
Frequency=0.001 MHz, x1 = 0.0463	0.973
Frequency=0.001 MHz, x1 = 0.0987	1.42
Frequency=0.001 MHz, x1 = 0.1449	1.56
Frequency=0.001 MHz, x1 = 0.1859	1.625
Frequency=0.001 MHz, x1 = 0.2493	1.515
Frequency=0.001 MHz, x1 = 0.3029	1.42
Frequency=0.001 MHz, x1 = 0.3845	1.25
Frequency=0.001 MHz, x1 = 0.4985	1.03
Frequency=0.001 MHz, x1 = 0.6954	0.741
Frequency=0.001 MHz, x1 = 0.9013	0.561
Frequency=0.001 MHz, x1 = 1	0.522
Frequency=0.0015 MHz, x1 = 0.0463	0.975
Frequency=0.0015 MHz, x1 = 0.0987	1.42
Frequency=0.0015 MHz, x1 = 0.1449	1.56
Frequency=0.0015 MHz, x1 = 0.1859	1.627
Frequency=0.0015 MHz, x1 = 0.2493	1.515
Frequency=0.0015 MHz, x1 = 0.3029	1.42
Frequency=0.0015 MHz, x1 = 0.3845	1.25
Frequency=0.0015 MHz, x1 = 0.4985	1.03
Frequency=0.0015 MHz, x1 = 0.6954	0.741
Frequency=0.0015 MHz, x1 = 0.9013	0.562
Frequency=0.0015 MHz, x1 = 1	0.522
Frequency=0.002 MHz, x1 = 0.0463	0.975
Frequency=0.002 MHz, x1 = 0.0987	1.42
Frequency=0.002 MHz, x1 = 0.1449	1.56
Frequency=0.002 MHz, x1 = 0.1859	1.629
Frequency=0.002 MHz, x1 = 0.2493	1.516
Frequency=0.002 MHz, x1 = 0.3029	1.42
Frequency=0.002 MHz, x1 = 0.3845	1.25
Frequency=0.002 MHz, x1 = 0.4985	1.03
Frequency=0.002 MHz, x1 = 0.6954	0.742
Frequency=0.002 MHz, x1 = 0.9013	0.562
Frequency=0.002 MHz, x1 = 1	0.522
Frequency=0.0025 MHz, x1 = 0.0463	0.976
Frequency=0.0025 MHz, x1 = 0.0987	1.42
Frequency=0.0025 MHz, x1 = 0.1449	1.56
Frequency=0.0025 MHz, x1 = 0.1859	1.63
Frequency=0.0025 MHz, x1 = 0.2493	1.516
Frequency=0.0025 MHz, x1 = 0.3029	1.42
Frequency=0.0025 MHz, x1 = 0.3845	1.25
Frequency=0.0025 MHz, x1 = 0.4985	1.03
Frequency=0.0025 MHz, x1 = 0.6954	0.742
Frequency=0.0025 MHz, x1 = 0.9013	0.562
Frequency=0.0025 MHz, x1 = 1	0.522
Frequency=0.003 MHz, x1 = 0.0463	0.976
Frequency=0.003 MHz, x1 = 0.0987	1.42
Frequency=0.003 MHz, x1 = 0.1449	1.56
Frequency=0.003 MHz, x1 = 0.1859	1.631
Frequency=0.003 MHz, x1 = 0.2493	1.516
Frequency=0.003 MHz, x1 = 0.3029	1.42
Frequency=0.003 MHz, x1 = 0.3845	1.25
Frequency=0.003 MHz, x1 = 0.4985	1.03
Frequency=0.003 MHz, x1 = 0.6954	0.742
Frequency=0.003 MHz, x1 = 0.9013	0.562
Frequency=0.003 MHz, x1 = 1	0.522
Frequency=0.00347222 MHz, x1 = 0.0463	0.977
Frequency=0.00347222 MHz, x1 = 0.0987	1.42
Frequency=0.00347222 MHz, x1 = 0.1449	1.56
Frequency=0.00347222 MHz, x1 = 0.1859	1.632
Frequency=0.00347222 MHz, x1 = 0.2493	1.516
Frequency=0.00347222 MHz, x1 = 0.3029	1.42
Frequency=0.00347222 MHz, x1 = 0.3845	1.25
Frequency=0.00347222 MHz, x1 = 0.4985	1.03
Frequency=0.00347222 MHz, x1 = 0.6954	0.742
Frequency=0.00347222 MHz, x1 = 0.9013	0.562
Frequency=0.00347222 MHz, x1 = 1	0.523
Frequency=0.004 MHz, x1 = 0.0463	0.977
Frequency=0.004 MHz, x1 = 0.0987	1.42
Frequency=0.004 MHz, x1 = 0.1449	1.56
Frequency=0.004 MHz, x1 = 0.1859	1.632
Frequency=0.004 MHz, x1 = 0.2493	1.516
Frequency=0.004 MHz, x1 = 0.3029	1.42
Frequency=0.004 MHz, x1 = 0.3845	1.25
Frequency=0.004 MHz, x1 = 0.4985	1.03
Frequency=0.004 MHz, x1 = 0.6954	0.742
Frequency=0.004 MHz, x1 = 0.9013	0.562
Frequency=0.004 MHz, x1 = 1	0.523
Frequency=0.00446429 MHz, x1 = 0.0463	0.977
Frequency=0.00446429 MHz, x1 = 0.0987	1.42
Frequency=0.00446429 MHz, x1 = 0.1449	1.56
Frequency=0.00446429 MHz, x1 = 0.1859	1.633
Frequency=0.00446429 MHz, x1 = 0.2493	1.516
Frequency=0.00446429 MHz, x1 = 0.3029	1.42
Frequency=0.00446429 MHz, x1 = 0.3845	1.25
Frequency=0.00446429 MHz, x1 = 0.4985	1.03
Frequency=0.00446429 MHz, x1 = 0.6954	0.742
Frequency=0.00446429 MHz, x1 = 0.9013	0.562
Frequency=0.00446429 MHz, x1 = 1	0.523
Frequency=0.005 MHz, x1 = 0.0463	0.977
Frequency=0.005 MHz, x1 = 0.0987	1.42
Frequency=0.005 MHz, x1 = 0.1449	1.56
Frequency=0.005 MHz, x1 = 0.1859	1.633
Frequency=0.005 MHz, x1 = 0.2493	1.517
Frequency=0.005 MHz, x1 = 0.3029	1.42
Frequency=0.005 MHz, x1 = 0.3845	1.25
Frequency=0.005 MHz, x1 = 0.4985	1.03
Frequency=0.005 MHz, x1 = 0.6954	0.742
Frequency=0.005 MHz, x1 = 0.9013	0.562
Frequency=0.005 MHz, x1 = 1	0.523
Frequency=0.005454 MHz, x1 = 0.0463	0.977
Frequency=0.005454 MHz, x1 = 0.0987	1.43
Frequency=0.005454 MHz, x1 = 0.1449	1.56
Frequency=0.005454 MHz, x1 = 0.1859	1.634
Frequency=0.005454 MHz, x1 = 0.2493	1.517
Frequency=0.005454 MHz, x1 = 0.3029	1.42
Frequency=0.005454 MHz, x1 = 0.3845	1.25
Frequency=0.005454 MHz, x1 = 0.4985	1.03
Frequency=0.005454 MHz, x1 = 0.6954	0.742
Frequency=0.005454 MHz, x1 = 0.9013	0.562
Frequency=0.005454 MHz, x1 = 1	0.523
Frequency=0.006 MHz, x1 = 0.0463	0.977
Frequency=0.006 MHz, x1 = 0.0987	1.43
Frequency=0.006 MHz, x1 = 0.1449	1.56
Frequency=0.006 MHz, x1 = 0.1859	1.634
Frequency=0.006 MHz, x1 = 0.2493	1.517
Frequency=0.006 MHz, x1 = 0.3029	1.42
Frequency=0.006 MHz, x1 = 0.3845	1.25
Frequency=0.006 MHz, x1 = 0.4985	1.03
Frequency=0.006 MHz, x1 = 0.6954	0.742
Frequency=0.006 MHz, x1 = 0.9013	0.562
Frequency=0.006 MHz, x1 = 1	0.523
Frequency=0.00652174 MHz, x1 = 0.0463	0.978
Frequency=0.00652174 MHz, x1 = 0.0987	1.43
Frequency=0.00652174 MHz, x1 = 0.1449	1.56
Frequency=0.00652174 MHz, x1 = 0.1859	1.634
Frequency=0.00652174 MHz, x1 = 0.2493	1.517
Frequency=0.00652174 MHz, x1 = 0.3029	1.42
Frequency=0.00652174 MHz, x1 = 0.3845	1.25
Frequency=0.00652174 MHz, x1 = 0.4985	1.03
Frequency=0.00652174 MHz, x1 = 0.6954	0.742
Frequency=0.00652174 MHz, x1 = 0.9013	0.563
Frequency=0.00652174 MHz, x1 = 1	0.523
Frequency=0.00694444 MHz, x1 = 0.0463	0.978
Frequency=0.00694444 MHz, x1 = 0.0987	1.43
Frequency=0.00694444 MHz, x1 = 0.1449	1.56
Frequency=0.00694444 MHz, x1 = 0.1859	1.634
Frequency=0.00694444 MHz, x1 = 0.2493	1.517
Frequency=0.00694444 MHz, x1 = 0.3029	1.42
Frequency=0.00694444 MHz, x1 = 0.3845	1.25
Frequency=0.00694444 MHz, x1 = 0.4985	1.03
Frequency=0.00694444 MHz, x1 = 0.6954	0.742
Frequency=0.00694444 MHz, x1 = 0.9013	0.563
Frequency=0.00694444 MHz, x1 = 1	0.523
Frequency=0.0075 MHz, x1 = 0.0463	0.978
Frequency=0.0075 MHz, x1 = 0.0987	1.43
Frequency=0.0075 MHz, x1 = 0.1449	1.56
Frequency=0.0075 MHz, x1 = 0.1859	1.634
Frequency=0.0075 MHz, x1 = 0.2493	1.517
Frequency=0.0075 MHz, x1 = 0.3029	1.42
Frequency=0.0075 MHz, x1 = 0.3845	1.25
Frequency=0.0075 MHz, x1 = 0.4985	1.03
Frequency=0.0075 MHz, x1 = 0.6954	0.742
Frequency=0.0075 MHz, x1 = 0.9013	0.563
Frequency=0.0075 MHz, x1 = 1	0.523
Frequency=0.008 MHz, x1 = 0.0463	0.978
Frequency=0.008 MHz, x1 = 0.0987	1.43
Frequency=0.008 MHz, x1 = 0.1449	1.56
Frequency=0.008 MHz, x1 = 0.1859	1.635
Frequency=0.008 MHz, x1 = 0.2493	1.517
Frequency=0.008 MHz, x1 = 0.3029	1.42
Frequency=0.008 MHz, x1 = 0.3845	1.25
Frequency=0.008 MHz, x1 = 0.4985	1.03
Frequency=0.008 MHz, x1 = 0.6954	0.742
Frequency=0.008 MHz, x1 = 0.9013	0.563
Frequency=0.008 MHz, x1 = 1	0.523
Frequency=0.00857143 MHz, x1 = 0.0463	0.978
Frequency=0.00857143 MHz, x1 = 0.0987	1.43
Frequency=0.00857143 MHz, x1 = 0.1449	1.57
Frequency=0.00857143 MHz, x1 = 0.1859	1.635
Frequency=0.00857143 MHz, x1 = 0.2493	1.517
Frequency=0.00857143 MHz, x1 = 0.3029	1.42
Frequency=0.00857143 MHz, x1 = 0.3845	1.25
Frequency=0.00857143 MHz, x1 = 0.4985	1.03
Frequency=0.00857143 MHz, x1 = 0.6954	0.742
Frequency=0.00857143 MHz, x1 = 0.9013	0.563
Frequency=0.00857143 MHz, x1 = 1	0.523
Frequency=0.00892857 MHz, x1 = 0.0463	0.978
Frequency=0.00892857 MHz, x1 = 0.0987	1.43
Frequency=0.00892857 MHz, x1 = 0.1449	1.57
Frequency=0.00892857 MHz, x1 = 0.1859	1.635
Frequency=0.00892857 MHz, x1 = 0.2493	1.517
Frequency=0.00892857 MHz, x1 = 0.3029	1.42
Frequency=0.00892857 MHz, x1 = 0.3845	1.25
Frequency=0.00892857 MHz, x1 = 0.4985	1.03
Frequency=0.00892857 MHz, x1 = 0.6954	0.742
